Measurements reported in ChEMBL document CHEMBL2021863, “Design and synthesis of new 4-pyrazolin-3-yl-1,2,3-triazoles and 1,2,3-triazol-4-yl-pyrazolin-1-ylthiazoles as potential antimicrobial agents” (2012).
In brackets after ≈: the same amount, converted by molar mass.

Assays:
Assay type in all cases: functional
[1] = system: Bacillus subtilis; test: Antimicrobial activity against Bacillus subtilis ATCC 6633 after 24 hrs by two-fold serial dilution method; details: ATCC 6633, 24 h
[2] = system: Klebsiella pneumoniae; test: Antimicrobial activity against Klebsiella pneumoniae ATCC 13883 at 100 ug/ml after 24 hrs by agar well diffusion assay; details: ATCC 13883, 24 h, read-out: DIZ
[3] = system: Micrococcus luteus; test: Antimicrobial activity against Sarcina lutea at 100 ug/ml after 24 hrs by agar well diffusion assay; details: read-out: DIZ
[4] = system: Escherichia coli; test: Antimicrobial activity against Escherichia coli ATCC 25922 after 24 hrs by two-fold serial dilution method; details: ATCC 25922, 24 h
[5] = system: Pseudomonas aeruginosa; test: Antimicrobial activity against Pseudomonas aeruginosa ATCC 27953 at 100 ug/ml after 24 hrs by agar well diffusion assay; details: ATCC 27953, 24 h, read-out: DIZ
[6] = system: Candida albicans; test: Antifungal activity against Candida albicans NRRL Y-477 at 100 ug/ml after 24 hrs by agar well diffusion assay; details: NRRL Y-477, 24 h, read-out: DIZ
[7] = system: Saccharomyces cerevisiae; test: Antifungal activity against Saccharomyces cerevisiae by two-fold serial dilution method
[8] = system: Staphylococcus aureus; test: Antimicrobial activity against Staphylococcus aureus ATCC 29213 at 100 ug/ml after 24 hrs by agar well diffusion assay; details: ATCC 29213, 24 h, read-out: DIZ
[9] = system: Klebsiella pneumoniae; test: Antimicrobial activity against Klebsiella pneumoniae ATCC 13883 after 24 hrs by two-fold serial dilution method; details: ATCC 13883, 24 h
[10] = system: Saccharomyces cerevisiae; test: Antifungal activity against Saccharomyces cerevisiae at 100 ug/ml after 24 hrs by agar well diffusion assay; details: read-out: DIZ
[11] = system: Micrococcus luteus; test: Antimicrobial activity against Sarcina lutea after 24 hrs by two-fold serial dilution method
[12] = system: Pseudomonas aeruginosa; test: Antimicrobial activity against Pseudomonas aeruginosa ATCC 27953 after 24 hrs by two-fold serial dilution method; details: ATCC 27953, 24 h
[13] = system: Bacillus subtilis; test: Antimicrobial activity against Bacillus subtilis ATCC 6633 at 100 ug/ml after 24 hrs by agar well diffusion assay; details: ATCC 6633, 24 h, read-out: DIZ
[14] = system: Candida albicans; test: Antifungal activity against Candida albicans NRRL Y-477 by two-fold serial dilution method
[15] = system: Escherichia coli; test: Antimicrobial activity against Escherichia coli ATCC 25922 at 100 ug/ml after 24 hrs by agar well diffusion assay; details: ATCC 25922, 24 h, read-out: DIZ
[16] = system: Staphylococcus aureus; test: Antimicrobial activity against Staphylococcus aureus ATCC 29213 after 24 hrs by two-fold serial dilution method; details: ATCC 29213, 24 h
[17] = system: Priestia megaterium; test: Antimicrobial activity against Bacillus megaterium ATCC 9885 after 24 hrs by two-fold serial dilution method; details: ATCC 9885, 24 h
[18] = system: Priestia megaterium; test: Antimicrobial activity against Bacillus megaterium ATCC 9885 at 100 ug/ml after 24 hrs by agar well diffusion assay; details: ATCC 9885, 24 h, read-out: DIZ

| MIC [1] [µg/mL] | MIC [4] [µg/mL] | MIC [7] [µg/mL] | MIC [9] [µg/mL] | MIC [11] [µg/mL] | MIC [12] [µg/mL] | MIC [14] [µg/mL] | MIC [16] [µg/mL] | MIC [17] [µg/mL] | Structure (SMILES) | zone of inhibition at 100 µg/mL [2] [mm] | zone of inhibition at 100 µg/mL [3] [mm] | zone of inhibition at 100 µg/mL [5] [mm] | zone of inhibition at 100 µg/mL [6] [mm] | zone of inhibition at 100 µg/mL [8] [mm] | zone of inhibition at 100 µg/mL [10] [mm] | zone of inhibition at 100 µg/mL [13] [mm] | zone of inhibition at 100 µg/mL [15] [mm] | zone of inhibition at 100 µg/mL [18] [mm] |
| --- | --- | --- | --- | --- | --- | --- | --- | --- | --- | --- | --- | --- | --- | --- | --- | --- | --- | --- |
| 33 (≈ 109 µM) | 8.25 (≈ 27.2 µM) | 66 (≈ 218 µM) | 132 (≈ 435 µM) | 16.5 (≈ 54.4 µM) | 8.25 (≈ 27.2 µM) | 16.5 (≈ 54.4 µM) | 16.5 (≈ 54.4 µM) |  | Cc1ccc(-n2nnc(C(=O)/C=C/c3ccccc3)c2C)cc1 | 16 | 26 | 28 | 24 | 22 | 22 | 26 | 32 |  |
| 8.25 (≈ 25.1 µM) | 132 (≈ 402 µM) | 8.25 (≈ 25.1 µM) | 16.5 (≈ 50.2 µM) | 16.5 (≈ 50.2 µM) | 8.25 (≈ 25.1 µM) | 16.5 (≈ 50.2 µM) | 16.5 (≈ 50.2 µM) |  | Cc1ccc(-n2nnc(C(=O)/C=C/c3ccc(C#N)cc3)c2C)cc1 | 24 | 24 | 26 | 24 | 23 | 30 | 28 | 16 |  |
| 33 (≈ 96.4 µM) | 8.25 (≈ 24.1 µM) | 8.25 (≈ 24.1 µM) | 8.25 (≈ 24.1 µM) | 8.25 (≈ 24.1 µM) | 8.25 (≈ 24.1 µM) | 8.25 (≈ 24.1 µM) |  | 33 (≈ 96.4 µM) | Cc1ccc(-n2nnc(C3=NNC(c4ccc(C#N)cc4)C3)c2C)cc1 (centres undefined) | 30 | 28 | 28 | 28 |  | 30 | 26 | 30 | 24 |
| 132 (≈ 330 µM) |  | 66 (≈ 165 µM) |  | 33 (≈ 82.4 µM) |  | 132 (≈ 330 µM) | 132 (≈ 330 µM) |  | Cc1ccc(-n2nnc(C3=NNC(c4ccc(N5CCCCC5)cc4)C3)c2C)cc1 (centres undefined) |  | 18 |  | 18 | 18 | 18 | 16 |  |  |
| 16.5 (≈ 35.1 µM) |  | 16.5 (≈ 35.1 µM) | 16.5 (≈ 35.1 µM) | 16.5 (≈ 35.1 µM) |  | 16.5 (≈ 35.1 µM) | 132 (≈ 281 µM) | 16.5 (≈ 35.1 µM) | Cc1ccc(-n2nnc(C3=NN(C(=S)Nc4ccccc4)C(c4ccc(F)cc4)C3)c2C)cc1 (centres undefined) | 22 | 20 |  | 22 | 16 | 24 | 27 |  | 20 |
|  |  | 8.25 (≈ 17.3 µM) |  | 33 (≈ 69.1 µM) | 66 (≈ 138 µM) | 33 (≈ 69.1 µM) | 33 (≈ 69.1 µM) |  | Cc1ccc(-n2nnc(C3=NN(C(=S)Nc4ccccc4)C(c4ccc(C#N)cc4)C3)c2C)cc1 (centres undefined) |  | 24 | 22 | 22 | 20 | 24 |  |  |  |
| 33 (≈ 58.5 µM) | 8.25 (≈ 14.6 µM) | 8.25 (≈ 14.6 µM) |  | 66 (≈ 117 µM) | 33 (≈ 58.5 µM) | 8.25 (≈ 14.6 µM) | 132 (≈ 234 µM) | 8.25 (≈ 14.6 µM) | Cc1ccc(-n2nnc(C3=NN(C(=S)NC(=O)c4ccccc4)C(c4ccc(N5CCCCC5)cc4)C3)c2C)cc1 (centres undefined) |  | 23 | 26 | 30 | 16 | 30 | 24 | 32 | 30 |

The remaining lines, values behind:

| Structure (SMILES) | MIC [1] [µg/mL] | MIC [4] [µg/mL] | MIC [7] [µg/mL] | MIC [9] [µg/mL] | MIC [11] [µg/mL] | MIC [12] [µg/mL] | MIC [14] [µg/mL] | MIC [16] [µg/mL] | MIC [17] [µg/mL] | zone of inhibition at 100 µg/mL [2] [mm] | zone of inhibition at 100 µg/mL [3] [mm] | zone of inhibition at 100 µg/mL [5] [mm] | zone of inhibition at 100 µg/mL [6] [mm] | zone of inhibition at 100 µg/mL [8] [mm] | zone of inhibition at 100 µg/mL [10] [mm] | zone of inhibition at 100 µg/mL [13] [mm] | zone of inhibition at 100 µg/mL [15] [mm] | zone of inhibition at 100 µg/mL [18] [mm] |
| --- | --- | --- | --- | --- | --- | --- | --- | --- | --- | --- | --- | --- | --- | --- | --- | --- | --- | --- |
| Cc1ccc(-n2nnc(C3=NN(c4nc(-c5ccc(Cl)cc5)cs4)C(c4ccc(F)cc4)C3)c2C)cc1 (centres undefined) | 8.25 (≈ 15.6 µM) | 33 (≈ 62.4 µM) | 16.5 (≈ 31.2 µM) | 16.5 (≈ 31.2 µM) | 66 (≈ 125 µM) | 16.5 (≈ 31.2 µM) | 16.5 (≈ 31.2 µM) | 8.25 (≈ 15.6 µM) |  | 28 | 22 | 24 | 25 | 28 | 28 | 30 | 29 |  |
| Cc1ccc(-n2nnc(C3=NN(c4nc(-c5ccc(Br)cc5)cs4)C(c4ccc(F)cc4)C3)c2C)cc1 (centres undefined) | 33 (≈ 57.5 µM) | 16.5 (≈ 28.8 µM) | 8.25 (≈ 14.4 µM) | 16.5 (≈ 28.8 µM) | 66 (≈ 115 µM) |  | 8.25 (≈ 14.4 µM) | 8.25 (≈ 14.4 µM) | 33 (≈ 57.5 µM) | 24 | 22 |  | 30 | 30 | 30 | 26 | 22 | 22 |
| Cc1ccc(-n2nnc(C3=NN(C4=NC(=O)CS4)C(c4ccc(F)cc4)C3)c2C)cc1 (centres undefined) |  | 8.25 (≈ 19 µM) | 66 (≈ 152 µM) |  | 132 (≈ 304 µM) | 33 (≈ 75.9 µM) | 132 (≈ 304 µM) |  | 8.25 (≈ 19 µM) |  | 16 | 20 | 16 |  | 18 |  | 28 | 30 |
| Cc1ccc(-n2nnc(C(=O)/C=C/c3ccc(F)cc3)c2C)cc1 | 16.5 (≈ 51.3 µM) |  | 16.5 (≈ 51.3 µM) | 132 (≈ 411 µM) | 132 (≈ 411 µM) | 132 (≈ 411 µM) | 16.5 (≈ 51.3 µM) | 16.5 (≈ 51.3 µM) | 16.5 (≈ 51.3 µM) | 16 | 16 | 16 | 22 | 20 | 23 | 26 |  | 24 |
| Cc1ccc(-n2nnc(C(=O)/C=C/c3ccc(N4CCCCC4)cc3)c2C)cc1 | 33 (≈ 85.4 µM) | 8.25 (≈ 21.3 µM) | 66 (≈ 171 µM) |  | 33 (≈ 85.4 µM) | 132 (≈ 342 µM) | 16.5 (≈ 42.7 µM) | 132 (≈ 342 µM) | 33 (≈ 85.4 µM) |  | 28 | 16 | 18 | 16 | 20 | 18 | 28 | 20 |
| Cc1ccc(-n2nnc(C3=NNC(c4ccccc4)C3)c2C)cc1 (centres undefined) | 8.25 (≈ 26 µM) | 132 (≈ 416 µM) | 8.25 (≈ 26 µM) |  | 16.5 (≈ 52 µM) | 8.25 (≈ 26 µM) | 8.25 (≈ 26 µM) | 8.25 (≈ 26 µM) | 132 (≈ 416 µM) |  | 30 | 28 | 28 | 34 | 28 | 32 | 16 | 16 |
| Cc1ccc(-n2nnc(C3=NNC(c4ccc(F)cc4)C3)c2C)cc1 (centres undefined) |  | 132 (≈ 394 µM) | 66 (≈ 197 µM) | 132 (≈ 394 µM) | 66 (≈ 197 µM) | 8.25 (≈ 24.6 µM) | 132 (≈ 394 µM) | 33 (≈ 98.4 µM) | 132 (≈ 394 µM) | 16 | 18 | 30 | 16 | 20 | 18 |  | 16 | 16 |
| Cc1ccc(-n2nnc(C3=NN(C(=S)Nc4ccccc4)C(c4ccccc4)C3)c2C)cc1 (centres undefined) |  | 8.25 (≈ 18.2 µM) | 16.5 (≈ 36.5 µM) | 16.5 (≈ 36.5 µM) | 66 (≈ 146 µM) | 132 (≈ 292 µM) | 16.5 (≈ 36.5 µM) | 8.25 (≈ 18.2 µM) | 8.25 (≈ 18.2 µM) | 18 | 20 | 24 | 24 | 18 | 26 | 26 |  | 24 |
| Cc1ccc(-n2nnc(C3=NN(C(N)=S)C(c4ccc(F)cc4)C3)c2C)cc1 (centres undefined) |  | 16.5 (≈ 41.8 µM) | 8.25 (≈ 20.9 µM) |  | 132 (≈ 335 µM) | 16.5 (≈ 41.8 µM) | 16.5 (≈ 41.8 µM) |  | 132 (≈ 335 µM) |  | 16 | 26 | 26 |  | 30 |  | 22 | 18 |
